Assay results taken from patent US9834514B2, “Antibiotic sensitivity-restoring and photosensitive agents” (New Mexico Tech Research Foundation, priority 2015, dated 2017).
In brackets after ≈: the same amount, converted by molar mass.

Legend:
HeLa cells = assay: Toxicity (IC50) on HeLa cells; format: cell-based, human; details: for IC50: Homo sapiens, cancerous cervical epithelium HeLa cells; for toxicity to HeLa versus normal WI38 cells: comparison of TABLE 2 values
Experimental: (§1) The toxicities of the compounds of the invention were determined for human cancerous cervical epithelium HeLa and normal lung fibroblast WI38 cells. The toxicities of EPIs INF-55 and INF-55Cl were quantified as controls. […] TABLE 2 compares the toxicity of compounds 7-11 on HeLa cells and normal WI38 cells.

WI38 cells = assay: Toxicity (IC50) on WI38 cells; format: cell-based; details: Homo sapiens, WI-38; normal lung fibroblast WI38 cells
Experimental: as §1

P. aeruginosa = assay: MIC against P. aeruginosa; format: cell-based; details: Pseudomonas aeruginosa, read-out: MIC
Description: Only compound 1 was able to decrease the CFU/mL when used in conjunction with white light to treat P. aeruginosa.

[1] = tested on: Klebsiella pneumoniae (CRE, ATCC BAA-1705); assay: Cell killing of CRE with compounds in presence or absence of PMB (CFU/mL); format: cell-based; details: for PMB + Comp: PMB @ 0.2 μg/mL + Comp @ 20 µM; for Comp @ 20 µM: compound alone
Experimental: Klebsiella pneumoniae (CRE, ATCC BAA-1705) was grown in TSB overnight at 37° C. and diluted to about 5×10^5 CFU/mL using a McFarland Latex Turbidity standard (0.5). One mL of the cell suspension was transferred to a glass culture test tube. PMB was added to the cell suspension resulting in a final concentration of 200 μg/mL of PMB. The cell suspension was incubated at 37° C. on a rotary shaking incubator at 150 rpm for 4 hours. Compounds 1, 7, 8, 9, 10, and 11 were added to the cell suspension, resulting in a concentration of 20 μM for each of the compounds. The cell suspensions containing the compounds were incubated at 37° C. on a rotary shaking incubator at 150 rpm for 4 hours. Each sample was diluted tenfold to a 10^−5 dilution. Ten 10 microliters of each dilution from each sample was dripped onto a TSA plate and allowed to streak down the plate. The agar plates were incubated at 37° C. for 18-24 hours. Colony counts were performed and CFU/mL values were calculated.
The MICs of PMB and compounds 7-11 were determined against Klebsiella pneumoniae (CRE, ATCC BAA-1705). […] After the incubation with PMB, each of the compounds was added at a concentration of 20 μM, and the samples were incubated for an additional 18 hours. A sample was taken and diluted ten-fold in media. Ten microliters of each dilution was then drip-streaked onto an agar plate and incubated overnight at 37° C. Colony counts were then performed and the concentrations of cells (CFU/mL) were calculated.

MRSA (ATCC BAA-44) = assay: Synergy with oxacillin and norfloxacin and other antibiotics (colony counts); format: cell-based, S. aureus; details: for MICs greater than cells treated with compound alone, with norfloxacin / MICs greater than cells treated with compound alone, with oxacillin: FIGS. 35-38; for Orders of Magnitude with Norfloxacin / Orders of Magnitude with Oxacillin: increase in ability to kill MRSA versus drug or compound alone
Experimental: The synergy of compounds 1 and 7-11 with oxacillin and norfloxacin was tested against MRSA (ATCC BAA-44). An overnight culture of MRSA was first diluted to about 5×10^5 CFU/mL in TSB. Then, 1 mL of the diluted broth suspension was added to a borosilicate glass culture tube. An appropriate volume of a compound or an antibiotic drug stock was added to the broth suspension and mixed using a vortex mixer. Then an appropriate volume of an antibiotic was added to test synergy with compounds 7-11. The samples were subsequently mixed using a vortex mixer, and the samples were incubated for 18 hours at 37° C. on a rotary shaking incubator. After 18 hours, the test cultures were diluted ten-fold, 10 μL of each dilution was drip-streaked onto a TSA plate, and the samples were incubated for 18 hours at 37° C. Colony counts were then performed and the CFU/mL values were calculated.
TABLE 21 details the MIC values identified in the MRSA assay of compounds 1, 7, 8, 9, 10, 11, various antibiotics, and light.

VRE = assay: MIC against VRE; format: cell-based, Enterococcus faecalis; details: Enterococcus, TABLE 23, read-out: VRE MIC
Experimental: In a 12×75 mm borosilicate glass culture tube, 1 mL of cell suspension was added. Then, compound 7 was added to the cells, and the samples were mixed using a vortex mixer. […] The samples were incubated overnight at 37° C. on a rotary shaking incubator at 100 rpm.

[2] = tested on: Klebsiella pneumoniae (CRE, ATCC BAA-1705); assay: MIC against CRE; format: cell-based; details: Klebsiella pneumoniae, ATCCBAA1705
Experimental: TABLE 27 details the individual MIC values of compounds 1, 7, 8, 9, 10, 11, PMB, PME, and light against CRE.
The MICs of PME and compounds 8-11 were determined against Klebsiella pneumoniae (CRE, ATCC BAA-1705). […] After the incubation with PME, the compounds were added at a concentration of 20 μM, and the samples were further incubated. At specific time points, the samples were taken and diluted ten-fold in media. Ten microliters of each dilution was then drip-streaked onto an agar plate and incubated overnight at 37° C. Colony counts were then performed and the CFU/mL were calculated.

[3] = tested on: A. baumannii (ATCC 15151); assay: Time course of colony counts with compounds and PME or PMB; format: cell-based; details: 0.2 μg/mL of PME, compound 5 μM; FIGS. 50, 52
Experimental: The MICs of PME and compounds 8-11 were determined against A. baumannii (ATCC 15151). […] After incubating the cells with PME, a compound (5 μM) was added, and the samples were further incubated at 37° C. At specific time points, samples were taken and diluted ten-fold in media. Ten microliters of each dilution was then drip-streaked onto an agar plate and incubated overnight at 37° C. Colony counts were then performed, and the CFU/mL were calculated.

A. baumannii = assay: Resensitization to antibiotics (log reduction, TABLE 29); format: cell-based; details: compound 5 μM; PME (0.2 μg/mL)
CRE = assay: as above; format: cell-based; details: compound 20 μM
Experimental: In a 96-well microtiter plate, two-fold dilutions were made of each drug (starting with 100 μM) in 100 μL of a cell suspension in TSB. The resulting samples were incubated overnight at 37° C. on a rotary shaking incubator at 100 rpm. The samples were then visually inspected for turbidity. A 20% well volume of MTT reagent (5 mg/mL) was subsequently added, and the samples were incubated for about 20 minutes.

S. aureus (ATCC 29213) = assay: MIC against drug sensitive S. aureus; format: cell-based; details: Staphylococcus aureus, ATCC29213; ATCC 29213; read-out: S. aureus MIC
MRSA = assay: Resensitization to antibiotics (log reduction, TABLE 29); format: cell-based, S. aureus
[4] = (½) MIC compound + (¼) MIC Norfloxacin
[5] = (½) MIC compound + (⅓) MIC Oxacillin
[6] = (⅛) MIC compound + (1/16) MIC Norfloxacin
[7] = (⅛) MIC compound + (⅛) MIC Oxacillin
[8] = compared to compound alone, FIGS. 34, 39, 41

Row | Compound | IC50 (HeLa cells) [µM] | toxicity to HeLa versus normal WI38 cells (HeLa cells) | IC50 (WI38 cells) [µM] | MIC (P. aeruginosa) [µM] | PMB + Comp [1] | Comp @ 20 µM [1] | MICs greater than cells treated with compound alone, with norfloxacin (MRSA (ATCC BAA-44)) | MICs greater than cells treated with compound alone, with oxacillin (MRSA (ATCC BAA-44)) | Orders of Magnitude with Norfloxacin (MRSA (ATCC BAA-44)) | Orders of Magnitude with Oxacillin (MRSA (ATCC BAA-44)) | MIC (VRE) [µM] | MIC [2] [µM] | A. baumannii colony populations on treatment with compound and PME [3] | Log Reduction (A. baumannii) | Log Reduction (CRE; PME (0.2 μg/mL)) | MIC (S. aureus (ATCC 29213)) [µM] | further results
1 | Clc1ccc(/N=N/c2c[nH]c3ccccc23)cc1 [Compound 9] | 34.4 | killed cancerous HeLa cells at concentrations that were not toxic to normal WI38 cells | 61.9 | > 100 | None Detected | 6.4 × 10^8 CFU/mL | two-fold | two-fold | >2 | >2 | > 200 | > 100 | reduced to sterility | 8 | 6 | 16 (≈ 4.09 µg/mL) | % Kill (MRSA (ATCC BAA-44); [4]): 99%; Surviving MRSA (MRSA (ATCC BAA-44); [4]): 1.00 × 10^−2; % Kill (MRSA (ATCC BAA-44); [5]): 99%; Surviving MRSA (MRSA (ATCC BAA-44); [5]): 1.00 × 10^−2; Log Reduction (CRE; PMB (0.2 μg/mL)): 6; Log Reduction (MRSA; compound 8 μM, Norfloxacin (25 μg/mL)): 2-3
2 | Clc1ccc(Oc2c(-c3ccc(Cl)cc3)[nH]c3ccccc23)cc1 [Compound 10] | 36.8 | killed cancerous HeLa cells at concentrations that were not toxic to normal WI38 cells | 54.8 | > 100 | None Detected | 7.9 × 10^8 CFU/mL | eight-fold | eight-fold | 8 | 8 | 10 to 20 (≈ 3.54 to 7.08 µg/mL) | > 100 | reduced to sterility | 8 | 6 | 32 to 64 (≈ 11.3 to 22.7 µg/mL) | % Kill (MRSA (ATCC BAA-44); [6]): 99.99%; Surviving MRSA (MRSA (ATCC BAA-44); [6]): 1.00 × 10^−8; % Kill (MRSA (ATCC BAA-44); [7]): 99.99%; Surviving MRSA (MRSA (ATCC BAA-44); [7]): 1.00 × 10^−8; Synergy with Norfloxacin (MRSA (ATCC BAA-44); TABLE 6): 5-log reduction; Synergy with Oxacillin (MRSA (ATCC BAA-44); TABLE 6): 4-log reduction; log reduction in the number of surviving cells (CFU/mL), co-treatment with norfloxacin (MRSA (ATCC BAA-44); [8]): ~5 log; log reduction in the number of surviving cells (CFU/mL), co-treatment with oxacillin (MRSA (ATCC BAA-44); [8]): ~4 log; Log Reduction (MRSA; compound 1 μM, Norfloxacin (15 μg/mL)): 5-6
